In ChEMBL document CHEMBL3259789, “Indothiazinone, an indolyl thiazolyl ketone from a novel myxobacterium belonging to the Sorangiineae” (J Nat Prod, 2014):
≈ marks a conversion by molar mass, not a printed value. Calls of active or inactive are those of the source. The calls are words filed in the database; no cut-off is given here.

Experiments:
Trichosporon oleaginosus [1] = assay: Antimicrobial activity against Trichosporon oleaginosus DSM 11815 by serial dilution method; type: functional; conditions: Cutaneotrichosporon oleaginosum
Wickerhamomyces anomalus [2] = assay: Antimicrobial activity against Pichia anomala DSM 6766 by serial dilution method; type: functional, organism-based
[3] = test system: Schizosaccharomyces pombe; assay: Antimicrobial activity against Schizosaccharomyces pombe DSM 70572 by serial dilution method; type: functional
Debaryomyces hansenii [4] = assay: Antimicrobial activity against Debaryomyces hansenii DSM 3428 by serial dilution method; type: functional
Mucor hiemalis [5] = assay: Antimicrobial activity against Mucor hiemalis DSM 2656 by serial dilution method; type: functional
Amorphotheca resinae [6] = assay: Antimicrobial activity against Hormoconis resinae DSM 1203 by serial dilution method; type: functional, organism-based
Saccharomyces cerevisiae [7] = assay: Antimicrobial activity against Saccharomyces cerevisiae BTc-3A by serial dilution method; type: functional, organism-based
Candida albicans [8] = assay: Antimicrobial activity against Candida albicans DSM 1665 by serial dilution method; type: functional
Penicillium capsulatum [9] = assay: Antimicrobial activity against Penicillium capsulatum DSM 2210 by serial dilution method; type: functional
Rhodotorula glutinis [10] = assay: Antimicrobial activity against Rhodotorula glutinis DSM 10134 by serial dilution method; type: functional
Pichia membranifaciens [11] = assay: Antimicrobial activity against Pichia membranifaciens DSM 21959 by serial dilution method; type: functional, organism-based
Aspergillus clavatus [12] = assay: Antimicrobial activity against Aspergillus clavatus DSM 816 by serial dilution method; type: functional
Eremothecium coryli [13] = assay: Antimicrobial activity against Nematospora coryli DSM 6981 by serial dilution method; type: functional
Escherichia coli [14] = assay: Antimicrobial activity against Escherichia coli DSM 1116 by serial dilution method; type: functional
Paenibacillus polymyxa [15] = assay: Antimicrobial activity against Paenibacillus polymyxa DSM 36 by serial dilution method; type: functional
[16] = test system: Chromobacterium violaceum; assay: Antimicrobial activity against Chromobacterium violaceum DSM 30191 by serial dilution method; type: functional
Nocardia sp. [17] = assay: Antimicrobial activity against Nocardia sp. DSM 43069 by serial dilution method; type: functional
Micrococcus luteus [18] = assay: Antimicrobial activity against Micrococcus luteus DSM 20030 by serial dilution method; type: functional
[19] = test system: Mycolicibacterium diernhoferi; assay: Antimicrobial activity against Mycobacterium diernhoferi DSM 43524 by serial dilution method; type: functional
Staphylococcus aureus [20] = assay: Antimicrobial activity against Staphylococcus aureus DSM 346 by serial dilution method; type: functional
Pimelobacter simplex [21] = assay: Antimicrobial activity against Nocardioides simplex DSM 20130 by serial dilution method; type: functional
Bacillus subtilis [22] = assay: Antimicrobial activity against Bacillus subtilis DSM 10 by serial dilution method; type: functional
Amorphotheca resinae [23] = assay: Antimicrobial activity against Hormoconis resinae DSM 1203 at 6.7 to 67 ug/ml by serial dilution method; type: functional, organism-based
Saccharomyces cerevisiae [24] = assay: Antimicrobial activity against Saccharomyces cerevisiae BTc-3A at 6.7 to 67 ug/ml by serial dilution method; type: functional, organism-based
Candida albicans [25] = assay: Antimicrobial activity against Candida albicans DSM 1665 at 6.7 to 67 ug/ml by serial dilution method; type: functional, organism-based
Debaryomyces hansenii [26] = assay: Antimicrobial activity against Debaryomyces hansenii DSM 3428 at 6.7 to 67 ug/ml by serial dilution method; type: functional, organism-based
Micrococcus luteus [27] = assay: Antimicrobial activity against Micrococcus luteus DSM 20030 at 6.7 to 67 ug/ml by serial dilution method; type: functional, organism-based
Staphylococcus aureus [28] = assay: Antimicrobial activity against Staphylococcus aureus DSM 346 at 6.7 to 67 ug/ml by serial dilution method; type: functional, organism-based
Pimelobacter simplex [29] = assay: Antimicrobial activity against Nocardioides simplex DSM 20130 at 6.7 to 67 ug/ml by serial dilution method; type: functional
Pseudomonas aeruginosa [30] = assay: Antimicrobial activity against Pseudomonas aeruginosa DSM 50071 at 6.7 to 67 ug/ml by serial dilution method; type: functional, organism-based
[31] = Cytotoxicity against mouse L929 cells after 5 days; type: cell-based; conditions: read-out: LC50
Nocardia sp. [32] = assay: Antimicrobial activity against Nocardia sp. DSM 43069 at 6.7 to 67 ug/ml by serial dilution method; type: functional, organism-based
[33] = test system: Schizosaccharomyces pombe; assay: Antimicrobial activity against Schizosaccharomyces pombe DSM 70572 at 6.7 to 67 ug/ml by serial dilution method; type: functional, organism-based
Paenibacillus polymyxa [34] = assay: Antimicrobial activity against Paenibacillus polymyxa DSM 36 at 6.7 to 67 ug/ml by serial dilution method; type: functional
[35] = test system: Chromobacterium violaceum; assay: Antimicrobial activity against Chromobacterium violaceum DSM 30191 at 6.7 to 67 ug/ml by serial dilution method; type: functional, organism-based
Penicillium capsulatum [36] = assay: Antimicrobial activity against Penicillium capsulatum DSM 2210 at 6.7 to 67 ug/ml by serial dilution method; type: functional
Wickerhamomyces anomalus [37] = assay: Antimicrobial activity against Pichia anomala DSM 6766 at 6.7 to 67 ug/ml by serial dilution method; type: functional, organism-based
Pichia membranifaciens [38] = assay: Antimicrobial activity against Pichia membranifaciens DSM 21959 at 6.7 to 67 ug/ml by serial dilution method; type: functional, organism-based
Escherichia coli [39] = assay: Antimicrobial activity against Escherichia coli DSM 1116 at 6.7 to 67 ug/ml by serial dilution method; type: functional, organism-based
[40] = test system: Mycolicibacterium diernhoferi; assay: Antimicrobial activity against Mycobacterium diernhoferi DSM 43524 at 6.7 to 67 ug/ml by serial dilution method; type: functional, organism-based
Rhodotorula glutinis [41] = assay: Antimicrobial activity against Rhodotorula glutinis DSM 10134 at 6.7 to 67 ug/ml by serial dilution method; type: functional, organism-based
Mucor hiemalis [42] = assay: Antimicrobial activity against Mucor hiemalis DSM 2656 at 6.7 to 67 ug/ml by serial dilution method; type: functional, organism-based
Bacillus subtilis [43] = assay: Antimicrobial activity against Bacillus subtilis DSM 10 at 6.7 to 67 ug/ml by serial dilution method; type: functional, organism-based
Pseudomonas aeruginosa [44] = assay: Antimicrobial activity against Pseudomonas aeruginosa DSM 50071 by serial dilution method; type: functional, organism-based
Eremothecium coryli [45] = assay: Antimicrobial activity against Nematospora coryli DSM 6981 at 6.7 to 67 ug/ml by serial dilution method; type: functional, organism-based
Trichosporon oleaginosus [46] = assay: Antimicrobial activity against Trichosporon oleaginosus DSM 11815 at 6.7 to 67 ug/ml by serial dilution method; type: functional; conditions: Cutaneotrichosporon oleaginosum
Aspergillus clavatus [47] = assay: Antimicrobial activity against Aspergillus clavatus DSM 816 at 6.7 to 67 ug/ml by serial dilution method; type: functional, organism-based

Row | Molecule | MIC (Trichosporon oleaginosus [1]) | MIC [3] | MIC (Mucor hiemalis [5]) | MIC (Rhodotorula glutinis [10]) | MIC (Aspergillus clavatus [12]) | inhibition (Amorphotheca resinae [23]) | inhibition (Saccharomyces cerevisiae [24]) | inhibition (Candida albicans [25]) | inhibition (Micrococcus luteus [27]) | inhibition (Staphylococcus aureus [28]) | inhibition (Pseudomonas aeruginosa [30]) | CC50 at 120 h [31] | inhibition [33] | inhibition (Paenibacillus polymyxa [34]) | inhibition [35] | inhibition (Penicillium capsulatum [36]) | inhibition (Wickerhamomyces anomalus [37]) | inhibition (Pichia membranifaciens [38]) | inhibition (Escherichia coli [39]) | inhibition [40] | further results
1 | NYSTATIN | 1 µg/mL | 33.3 µg/mL | 2.1 µg/mL | 0.52 µg/mL | 2.1 µg/mL | – | – | – | – | – | – | – | – | – | – | – | – | – | – | – | MIC (Wickerhamomyces anomalus [2]): 4.2 µg/mL; MIC (Debaryomyces hansenii [4]): 6.7 µg/mL; MIC (Amorphotheca resinae [6]): < 0.25 µg/mL; MIC (Saccharomyces cerevisiae [7]): 1.7 µg/mL; MIC (Candida albicans [8]): 4.2 µg/mL; MIC (Penicillium capsulatum [9]): 16.6 µg/mL; MIC (Pichia membranifaciens [11]): 0.83 µg/mL; MIC (Eremothecium coryli [13]): 4.2 µg/mL
2 | CN(C)[C@@H]1C(O)=C(C(N)=O)C(=O)[C@@]2(O)C(O)=C3C(=O)c4c(O)cccc4[C@@](C)(O)[C@H]3[C@H](O)[C@@H]12.Cl [OXYTETRACYCLINE HYDROCHLORIDE] | – | – | – | – | – | – | – | – | – | – | – | – | – | – | – | – | – | – | – | – | MIC (Escherichia coli [14]): 1 µg/mL; MIC (Paenibacillus polymyxa [15]): 8.3 µg/mL; MIC [16]: 1 µg/mL; MIC (Nocardia sp. [17]): 8.3 µg/mL; MIC (Micrococcus luteus [18]): 3.3 µg/mL; MIC [19]: < 0.25 µg/mL; MIC (Staphylococcus aureus [20]): 0.21 µg/mL; MIC (Pimelobacter simplex [21]): 16.6 µg/mL; MIC (Bacillus subtilis [22]): 8.3 µg/mL
3 | O=C(c1nccs1)c1c[nH]c2ccccc12 | 67 µg/mL (≈ 294 µM) | – | 33.3 µg/mL (≈ 146 µM) | 67 µg/mL (≈ 294 µM) | 33.3 µg/mL (≈ 146 µM) | inactive | inactive | inactive | inactive | inactive | inactive | > 10 µg/mL | inactive | inactive | inactive | inactive | inactive | inactive | inactive | inactive | inhibition (Debaryomyces hansenii [26]): inactive; inhibition (Pimelobacter simplex [29]): inactive; inhibition (Nocardia sp. [32]): inactive; MIC (Eremothecium coryli [13]): 33.3 µg/mL (≈ 146 µM)
4 | CC(=O)/C=C/c1ccc2[nH]cc(CCO)c2c1 | – | – | – | – | – | – | – | inactive | inactive | inactive | inactive | – | inactive | – | inactive | – | inactive | – | inactive | – | inhibition (Rhodotorula glutinis [41]): inactive; inhibition (Mucor hiemalis [42]): inactive; inhibition (Bacillus subtilis [43]): inactive
5 | GENTAMICIN | – | – | – | – | – | – | – | – | – | – | – | – | – | – | – | – | – | – | – | – | MIC (Pseudomonas aeruginosa [44]): 67 µg/mL
6 | C=C(C)/C=C/c1ccc2[nH]cc(C/C=N\O)c2c1 | 67 µg/mL (≈ 279 µM) | 67 µg/mL (≈ 279 µM) | 67 µg/mL (≈ 279 µM) | 67 µg/mL (≈ 279 µM) | 67 µg/mL (≈ 279 µM) | inactive | inactive | inactive | inactive | inactive | inactive | 6.8 µg/mL (≈ 28.3 µM) | – | inactive | inactive | inactive | inactive | inactive | inactive | inactive | MIC (Nocardia sp. [17]): 33.3 µg/mL (≈ 139 µM); MIC (Debaryomyces hansenii [4]): 67 µg/mL (≈ 279 µM); inhibition (Eremothecium coryli [45]): inactive; MIC (Pimelobacter simplex [21]): 33.3 µg/mL (≈ 139 µM)
7 | CC1=C(CCO)C(=O)c2ccccc2C1=O | – | – | 67 µg/mL (≈ 310 µM) | 67 µg/mL (≈ 310 µM) | – | – | – | – | inactive | – | – | – | inactive | – | – | – | inactive | – | inactive | – | MIC [16]: 67 µg/mL (≈ 310 µM); MIC (Candida albicans [8]): 67 µg/mL (≈ 310 µM); MIC (Staphylococcus aureus [20]): 33.3 µg/mL (≈ 154 µM); MIC (Bacillus subtilis [22]): 33.3 µg/mL (≈ 154 µM)
8 | C=C(C)/C=C/c1ccc2[nH]cc(C/C=N/O)c2c1 | 67 µg/mL (≈ 279 µM) | 67 µg/mL (≈ 279 µM) | 67 µg/mL (≈ 279 µM) | 67 µg/mL (≈ 279 µM) | 67 µg/mL (≈ 279 µM) | inactive | inactive | inactive | inactive | inactive | inactive | 6.8 µg/mL (≈ 28.3 µM) | – | inactive | inactive | inactive | inactive | inactive | inactive | inactive | MIC (Nocardia sp. [17]): 33.3 µg/mL (≈ 139 µM); MIC (Debaryomyces hansenii [4]): 67 µg/mL (≈ 279 µM); inhibition (Eremothecium coryli [45]): inactive; MIC (Pimelobacter simplex [21]): 33.3 µg/mL (≈ 139 µM)
9 | C=C(C)/C=C/c1ccc2[nH]cc(CCO)c2c1 | – | – | – | – | – | inactive | inactive | inactive | inactive | inactive | inactive | > 10 µg/mL | inactive | inactive | inactive | inactive | inactive | inactive | inactive | inactive | inhibition (Rhodotorula glutinis [41]): inactive; inhibition (Trichosporon oleaginosus [46]): inactive; inhibition (Debaryomyces hansenii [26]): inactive; inhibition (Pimelobacter simplex [29]): inactive; inhibition (Mucor hiemalis [42]): inactive; inhibition (Eremothecium coryli [45]): inactive; inhibition (Aspergillus clavatus [47]): inactive; inhibition (Nocardia sp. [32]): inactive
